This is an account of results in ChEMBL document CHEMBL1143173, “2D Autocorrelation, CoMFA, and CoMSIA modeling of protein tyrosine kinases' inhibition by substituted pyrido[2,3-d]pyrimidine derivatives” (Bioorg Med Chem, 2008).

Assay [1] can be described thus: Inhibition of PDGFR.
A short description of assay [2]: Inhibition of FGFR.
In assay [3] the target is Proto-oncogene tyrosine-protein kinase Src (Homo sapiens) (UniProt P12931). The assay can be described thus: Inhibition of cSrc.
Sequence of Proto-oncogene tyrosine-protein kinase Src (Homo sapiens) (P12931 2-536 limits assumed): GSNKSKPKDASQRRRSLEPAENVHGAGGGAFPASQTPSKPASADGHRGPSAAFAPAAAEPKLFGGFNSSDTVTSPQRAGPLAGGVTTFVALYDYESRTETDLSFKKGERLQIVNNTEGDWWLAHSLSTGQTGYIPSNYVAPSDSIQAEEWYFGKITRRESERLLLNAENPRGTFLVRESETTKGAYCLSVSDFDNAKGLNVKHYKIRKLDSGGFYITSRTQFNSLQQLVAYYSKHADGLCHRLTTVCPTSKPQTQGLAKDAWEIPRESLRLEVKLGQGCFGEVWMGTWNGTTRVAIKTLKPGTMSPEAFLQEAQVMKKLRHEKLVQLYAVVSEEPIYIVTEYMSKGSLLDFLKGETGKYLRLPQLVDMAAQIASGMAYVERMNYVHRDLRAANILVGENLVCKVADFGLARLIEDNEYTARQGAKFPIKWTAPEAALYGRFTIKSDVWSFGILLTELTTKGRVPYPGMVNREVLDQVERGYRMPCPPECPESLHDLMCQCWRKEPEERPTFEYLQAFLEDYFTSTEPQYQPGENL

In the case of `Cn1c(=O)c(-c2c(Cl)cccc2Cl)cc2cnc(Nc3ccc(CC(=O)O)cc3)nc21`, the figures for the log(10^6/IC50) in assay [1], in assay [2] and in assay [3] were 4.15, 4.21 and 5, respectively.

As to `COc1ccc(NC(=O)Nc2nc3nc(NCCCN4CCN(C)CC4)ncc3cc2-c2c(Cl)cccc2Cl)cc1`, the log(10^6/IC50) in assay [3] was 4.55.

For the compound `COc1cc(OC)cc(-c2cc3cnc(N)nc3n(C)c2=O)c1`, the log(10^6/IC50) was found to be 1.37 in assay [1], 3.9 in assay [2] and 1.3 in assay [3].

For the compound `Cc1ncc2cc(-c3c(Cl)cccc3Cl)c(=O)n(C)c2n1`, the log(10^6/IC50) in assay [1], in assay [2] and in assay [3] was 1.3 in each case.

With `CN(C)c1cc(-c2cc3cnc(N)nc3nc2NC(=O)NC(C)(C)C)cc(N(C)C)c1`, the log(10^6/IC50) in assay [1] amounted to 1.3; in assay [2], 1.8; in assay [3], 1.3.

As to `CCOc1cc(OCC)cc(-c2cc3cnc(N)nc3nc2NC(=O)NC(C)(C)C)c1`, the log(10^6/IC50) in assay [1] was determined as 1.3; in assay [2], 2.78; in assay [3], 1.3.

`CN1CCN(c2ccc(Nc3ncc4cc(-c5c(Cl)cccc5Cl)c(=O)n(C)c4n3)cc2)CC1`: the log(10^6/IC50) worked out at 3.94 in assay [1], 4.29 in assay [2] and 5 in assay [3].

As to `Cn1c(=O)c(-c2c(Cl)cccc2Cl)cc2cncnc21`, the log(10^6/IC50) came out at 1.3 in assay [1], 1.3 in assay [2] and 2 in assay [3].

As for `CN(C)c1ncc2cc(-c3c(Cl)cccc3Cl)c(=O)n(C)c2n1`, the log(10^6/IC50) in assay [1], in assay [2] and in assay [3] was 1.3 throughout.

Consider `CC(C)(C)NC(=O)Nc1nc2nc(N)ncc2cc1-c1cc(C(F)(F)F)cc(C(F)(F)F)c1`, for which the log(10^6/IC50) in assay [1], in assay [2] and in assay [3] was 1.3 in each case.
